Entries after “also recorded” stand apart in the source; their conditions may differ.
Key:
[1] = test system: MEF cells; assay: CellTiter-Glo viability assay, MEF cells; type: cell-based, mouse; details: 6 or 24 hours incubation
Procedure: (§1) For cell viability experiments using the CellTiter-Glo® 2.0 system (Promega), MEF cells (1.2×10^3 cells/well), HepG2 cells (4×10^3 cells/well) and Jurkat T-cells (5×10^3 cells/well) were seeded in 384 well plates. After 18 hours, cells were treated with compounds using the Sciclone G3 automation system. After 6 or 24 hours incubation, the luciferase measurement was performed according to the manufacturer's manual.

[2] = molecular target: T1, RNF4 (Homo sapiens, UniProt P78317); assay: In vitro ubiquitination assay, RNF4 ubiquitin ligase kit; type: biochemical
T1 construct: purchased Boston Biochem
Procedure: For analysis of cIAP1, MDM2, TRIM63, RNF4, ITCH and E6AP mediated poly-ubiquitination, the respective ubiquitin ligase kit from Boston Biochem (K-102, K-260, K-200B, K-220, K-240 and K-270) was used. Here, reaction buffer, E1, E2 and E3 enzyme (and p53 substrate in case of MDM2) were mixed and pre-incubated with compound or DMSO for 5 minutes at room temperature before adding Mg^2+-ATP and mono-ubiquitin for reaction start. Ubiquitination was visualized by Western Blot analyses.

[3] = test system: Jurkat T-cells; assay: Cell cycle assessment (propidium iodide), Jurkat T-cells; type: cell-based, human; details: 24 hours and 72 hours
Procedure: For cell cycle staining, cells were seeded at 2×10^5 cells per sample and treated with compound or DMSO. After the indicated incubation time (24 or 72 hours), cells were fixed in 100% Ethanol and subsequently stained with the Propidium Iodide staining solution (0.1% Triton X-100; 20 μg/ml Propidium Iodide; 200 μg/ml RNAse A in PBS) for 40 min in the dark. The Propidium Iodide fluorescence was collected using the Attune Flow Cytometer (Thermo Fisher Scientific). Analysis was performed using the Single Cell analysis software FlowJo.

[4] = test system: HepG2 cells; assay: CellTiter-Glo viability assay, HepG2 cells; type: cell-based; details: 6 or 24 hours incubation
Procedure: as §1

[5] = test system: primary human peripheral blood mononuclear cells (PBMCs); assay: Human PBMC cytokine secretion (ELISA); type: cell-based
Procedure: For measurement of cytokine secretion, 2×10^5 Jurkat T-cells or primary CD4^+ T-cells or human PBMCs per sample were seeded, treated with compound for 6 hours and stimulated as indicated. 20 hours after stimulation, supernatants were harvested and analyzed with the IL-2, IL-1β and TNFα Ready-Set-Go! ELISA (2nd Generation) kits provided by Affymatrix eBioscience.
For isolation of peripheral blood mononuclear cells (PBMCs) from 50 mL human blood of three different donors, blood was mixed with 800 units of Heparin (Sigma-Aldrich) and centrifuged at 300×g for 10 minutes without brake. After removal of the plasma fraction, buffy coat was diluted in 2 volumes PBS and added on top of 15 ml Lymphoprep (STEMCELL technologies). After centrifugation at 160×g for 20 minutes at room temperature without brake, platelets were removed and the cell suspension was centrifuged again at 350×g for 20 minutes without brake. Mononuclear cells from the intermediate layer were transferred to a new falcon and washed 3 times in PBS supplemented with 0.1% BSA and 2 mM EDTA. In the end, cells were resuspended in RPMI medium containing 10% FCS, 1% Penicillin/Streptomycin and 50 μM β-mercaptoethanol. Per sample, 2×10^5 cells were seeded and treated with compound for 6 hours. The cells were stimulated with either 1 μg/ml Lipopolysaccharide (LPS) or CD3/CD28 (1 μg hCD3 (IgG2A), 4 μg hCD28 (IgG1), […] and […]) or 20 ng/IL-1β. Supernatants for analysis of cytokine secretion were harvested 20 hours after stimulation.

[6] = test system: IKK kinase activity in Jurkat T-cells; assay: IKK kinase assay in Jurkat T-cells; type: cell-based, human; details: PMA/Ionomycin
Procedure: For MEF cells, 5.5×10^5 cells were seeded, then treated with compound for 6 hours and eventually stimulated with IL-1β or TNFα for 8 minutes. 1×10^6 Jurkat T-cells were treated with compound for 6 hours and finally stimulated with PMA (400 ng/ml) and lonomycin (600 ng/ml) for 8 minutes. After cell lysis in Co-IP lysis buffer (150 mM NaCl; 25 mM Hepes (pH 7.5); 0.2% NP-40; 1 mM Glycerol; 10 mM NaF; 8 mM β-Glycerophosphat; 1 mM DTT; 300 μM Sodium-vanadate; complete protease inhibitor), input samples were taken and the supernatant was then incubated with 6 μL IKKγ antibody FL-419 (Santa Cruz Biotechnology). Upon incubation with Protein-G-Sepharose beads (GE Healthcare), beads were washed in Co-IP wash buffer (150 mM NaCl; 25 mM Hepes (pH 7.5); 0.2% NP-40; 1 mM Glycerol) and transferred into kinase reaction buffer ([…] HEPES pH7.9; 10 mM MgCl2; 20 μM ATP; 20 mM β-Glycerophosphat; 200 μM Sodium-Vanadate; 1 mM DTT) supplemented with […] GST-IκBα (1-53) and 0.5 μL ^32P-γ-ATP. After 30 minutes incubation at 37° C., reaction was stopped and analyzed by autoradiography as well as Western Blot after separation on SDS-PAGE.

[7] = molecular target: T2, TRAF6 RZ1 protein (Homo sapiens, UniProt Q9Y4K3); assay: Two-dimensional NMR (SOFAST-HMQC) binding experiment; details: protein:compound 1:5
T2 construct: GST (N, cleaved yes); made in house; host or cells: E. coli BL21 codon plus RIPL, M9 medium with 15NH4
Procedure: To determine whether the inhibitory compounds directly bind to TRAF6 rather than to Ubc13, 2D-NMR experiments were conducted. Untagged ^15N-labeled TRAF6 RZ1 protein (c=120 μM) and compound (c=20 mM) were incubated at a ratio of 1:5 in a 3 mm NMR tube for 10 minutes before spectra acquisition. To observe chemical shift perturbations upon compound addition, two-dimensional SOFAST-HMQC spectra were acquired. All measurements were performed using the Bruker Avance 600 MHz spectrometer.

[8] = molecular target: T3, TRAF6-Ubc13 binding in HEK293T cells (Homo sapiens, UniProt Q9Y4K3); assay: Co-immunoprecipitation of HA-TRAF6 and Ubc13 in HEK 293T cells; type: cell-based
T3 construct: RING-Zincfinger1 (RZ1) domain (residues 50-159) of human TRAF6 wildtype; expressed in transfected cells; host or cells: HEK 293T
T3 sequence (Q9Y4K3 50-159): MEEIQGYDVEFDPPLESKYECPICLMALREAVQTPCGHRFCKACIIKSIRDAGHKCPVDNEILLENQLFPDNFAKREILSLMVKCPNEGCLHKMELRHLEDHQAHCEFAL
Procedure: To study the interaction of TRAF6 and Ubc13 in cells, 1×10^6 293T cells were seeded and after 18 hours cells were transfected with 1 μg pEF-HA empty or pEF-HA-TRAF6 RZ1 plasmid using the X-tremeGENE HP DNA transfection reagent (Roche). 6 hours upon transfection, cells were treated with compound or DMSO. After 42 hours further incubation, cells were harvested in Co-IP lysis buffer and HA-TRAF6 was immunoprecipitated with anti-HA affinity matrix (Roche). Binding of Ubc13 to TRAF6 was examined in Western Blot analysis.

T2 sequence (Q9Y4K3 with tags, fused parts or gaps): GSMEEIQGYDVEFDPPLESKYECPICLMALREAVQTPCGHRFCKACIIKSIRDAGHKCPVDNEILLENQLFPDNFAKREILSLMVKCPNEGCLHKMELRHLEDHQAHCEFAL
T1 sequence (P78317 whole entry): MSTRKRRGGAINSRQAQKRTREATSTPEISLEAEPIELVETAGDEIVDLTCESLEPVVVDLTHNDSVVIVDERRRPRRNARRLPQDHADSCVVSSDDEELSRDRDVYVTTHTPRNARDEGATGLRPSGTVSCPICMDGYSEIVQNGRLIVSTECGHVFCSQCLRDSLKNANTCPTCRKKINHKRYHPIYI

Compound: Cc1nn(-c2ccc3nnc(C)n3n2)c(C)c1CCC(=O)N1CCC(Cc2ccccc2)CC1 [Example C25-140, 1-(4-Benzylpiperidin-1-yl)-3-(3,5-dimethyl-1-(3-methyl-[1,2,4]-triazolo-[4,3-b]-pyridazin-6-yl)-1H-pyrazol-4-yl)-propan-1-one]
- metabolic activity and cell viability [1]: did not considerably impact cell viability; also recorded: does not considerably affect metabolic activity and cell viability up to 50 μM; also recorded: at the highest dose of 100 μM toxicity is noticeable
- RNF4 auto-ubiquitination [2]: not influenced; also recorded: not affected
- cell cycle progression [3]: no effects on cell cycle phases; also recorded: not impaired
- metabolic activity and cell viability [4]: did not considerably impact cell viability; also recorded: does not considerably affect metabolic activity and cell viability up to 50 μM; also recorded: at the highest dose of 100 μM toxicity is noticeable
- secretion of IL-2 and TNFα ([5]; CD3/CD28 stimulation): decreased levels of IL-2 and TNFα secretion
- secretion of IL-6 and TNFα ([5]; IL-1β stimulation): reduced secretion; also recorded: attenuated
- secretion of IL-1β and TNFα ([5]; LPS stimulation): reduced secretion; also recorded: reduced levels of IL-1β and TNFα cytokines
- IKK kinase activity [6]: reduced; also recorded: diminished
- direct binding to TRAF6 RZ1 protein (shifting or disappearing of NMR peaks) [7]: directly binds to the TRAF6 protein
- interaction of endogenous Ubc13 with HA-tagged TRAF6 (co-immunoprecipitation) [8]: reduced interaction; also recorded: most active analogs; also recorded: dose-dependently decreases; also recorded: demonstrated inhibition of TRAF6-Ubc13 binding

Reference: patent US12240854B2, “TRAF 6 inhibitors” (Helmholtz Zentrum München - Deutsches Forschungszentrum für …, priority 2018, dated 2025)
